Results reported in PMC10733463, “Berberine-microbiota interplay: orchestrating gut health through modulation of the gut microbiota and metabolic transformation into bioactive metabolites” (Frontiers in Pharmacology, 2023).

How the values were obtained:
Caco-2 cells = test: Berberine metabolism in intestinal cell cultures, Caco-2; type: in vitro ADME, human
Method: (§1) Caco-2 and T84 cells were seeded at 2 × 10^5 cells/well in 96-well plates and cultivated for 24 h in their respective medium, as described before. Cells were treated with 200 µL of 0.1 μg/mL berberine in antibiotic-free medium and incubated for 48 h. Berberine medium only was incubated in the same conditions as the cells and used as control for metabolite baseline levels. 100 μL of cell cultures or control medium were collected and centrifuged at 13,000 g for 10 min 80 μL of the supernatant was mixed with 20 µL 170 mg/mL L-ascorbic acid solution in water for dihydroberberine stabilization and stored at −20°C until metabolite analysis. All experiments were performed in triplicate at 37°C, 5% CO2. Metabolite production was expressed as a log2 fold change, calculated as the log2 of the ratio of the metabolite response at t = 48 h in the cell cultures over the metabolite response at t = 48 h in the control medium.
(§2) The column temperature was maintained at 25°C. The autosampler temperature was set at 10°C.

[1] = UPLC-MS/MS quantification of berberine and metabolites in plasma; type: in vivo, Ross 308 broiler chickens; settings: chickens fed 0.1, 0.5 or 1 g berberine/kg feed for 21 days; LOQ 0.1 ng/mL
Source text: (§3) The study was undertaken following the guidelines of the ethics committee of the Faculty of Veterinary Medicine and Bioscience Engineering, Ghent University, in accordance with the EU Directive 2010/63/EU. One-day-old Ross 308 male broilers were obtained from a local hatchery and housed in pens on wood shavings. They were allotted into 4 groups, with three replicate pens per group each housing 8 chickens. The animals were not vaccinated. Water and commercial starter feed (day 1–12, FARM 1 Mash, Country’s Best, Versele Laga, Deinze, Belgium) or grower (day 13–21, FARM 2 mash, Country’s Best, Versele Laga, Deinze, Belgium) were provided ad libitum. The control group received the standard non-supplemented diets, whereas the chickens in other groups were fed the same feed supplemented with 0.1, 0.5 or 1 g berberine/kg feed throughout the whole trial period. At day 21, 4 birds per pen were weighted then euthanized by sodium pentobarbital injection for sampling. Individual jejunal, ileal, caecal and colonic contents were stored at −20°C for microbiota composition analysis (16S rRNA gene sequencing). Additionally, ileal and caecal content samples were collected and stored at −20°C for berberine and berberine-derived metabolite quantification. Duodenal tissue samples were collected and fixed in 4% phosphate buffered formaldehyde for histological analysis. Blood samples were collected in heparin tubes and centrifuged at 524 g for 10 min to recover the plasma fraction, which was further mixed with 17 mg/mL L-ascorbic acid for dihydroberberine stabilization, and stored at −20°C for berberine and berberine-derived metabolite quantification.
as §2
A 137.5 µL plasma sample containing 17 mg/mL L-ascorbic acid was used for sample extraction. The ascorbic acid solution was added to prevent oxidation of dihydroberberine to berberine during sample storage ([Feng et al., 2015]). The plasma sample was transferred to an OstroTM 96 well-plate (25 mg) (Waters). Subsequently, 50 µL Milli-Q water and 25 µL of an internal standard solution containing 100 ng/mL of both berberine-d6 and tetrahydropalmatine were added. A 640 µL volume of 1% (v/v) formic acid solution in acetonitrile (1/3 ratio) was added, followed by gentle mixing. Vacuum was applied on the Ostro™ plate for 5 min and the eluate was collected in a 2 mL square 96-well collector plate. The sample was transferred in a glass tube and evaporated at 40°C under a gentle stream of nitrogen in a Pierce (Rockford, United States) Reacti-Therm III™ Heating Module and Reacti-Vap™ III Module. The dried sample extract was reconstituted in 500 µL Milli-Q water, followed by injection of a 5 µL sample aliquot onto the UPLC-MS/MS apparatus. Quantification was based on the ratio of the analyte peak area compared to the peak area of the internal standard berberine-d6.
Calibration standards and quality control samples were prepared as follows: 137.5 µL of blank plasma stabilized with 17 mg/mL L-ascorbic acid were supplemented with 25 µL mixed working solutions of berberine and metabolites (except dihydroberberine) at different levels, 25 µL of dihydroberberine working solution, stabilized with 17 mg/mL L-ascorbic acid, at different levels and 25 µL of an internal standard solution containing 100 ng/mL of both berberine-d6 and tetrahydropalmatine. The calibration curve was in the 0.1–100 ng/mL range, including 0.1, 0.5, 1, 2.5, 5, 10, 25, […], 50 and 100 ng/mL levels.
The UPLC-MS/MS analysis method for the quantification of berberine and berberine-derived metabolites both in plasma and ileal/caecal intestinal content was validated to the guidelines of the European Medicines Agency, i.e., of the Committee for Veterinary Medicinal Products (EMEA/CVMP/VICH/463202/2009) and of the Committee for Medicinal Products for Human Use (EMEA/CHMP/EWP/192217/20), and in accordance with the EU Directive 2002/657/EC. […]

[2] = UPLC-MS/MS quantification of berberine and metabolites in ileal and caecal content; type: in vivo, Ross 308 broiler chickens; settings: 21 days
Source text: as §3, §2
250 mg of ileal or caecal content was weighed in a 15 mL polypropylene centrifuge tube and 250 µL of ascorbic acid 170 mg/mL solution was added for stabilization of dihydroberberine, followed by brief vortexing. Subsequently, 25 µL of an internal standard solution containing 250 μg/mL of berberine-d6 and 2.5 μg/mL tetrahydropalmatine were added, followed by brief vortexing. A 2.5 mL volume of extraction solvent was then added, consisting of a 1% (v/v) formic acid solution in methanol. The sample was put on a rotary shaker set at 80 rpm for 20 min, followed by centrifugation (3,720 g, 10 min, 4°C). The supernatant was then diluted, by a factor 5 for measurement of low abundance components, and by a factor 2,000 for measurement of high abundance components. The 1/5 diluted sample extract was prepared directly in an autosampler vial as follows: 200 µL sample extract were mixed with 100 µL ascorbic acid 170 mg/mL solution and 700 µL Milli-Q water. For the 1/2,000 diluted sample extract, an intermediate 1/100 sample dilution was prepared by combining 500 µL sample extract and 49.5 mL of Milli-Q water. 50 μL was then transferred in an autosampler vial followed by the addition of 950 µL of Milli-Q water. For both dilutions, a 5 µL sample aliquot was injected onto the UPLC-MS/MS apparatus. Quantification was based on the ratio of the analyte peak area compared to the peak area of the internal standard tetrahydropalmatine for 1/5 diluted sample extracts, and on the ratio of the analyte peak area compared to the peak area of the internal standard berberine-d6 for 1/2,000 diluted sample extracts.
Calibration standards and quality control samples were prepared as follows: 250 mg of blank ileal or caecal content were supplemented with 250 µL of ascorbic acid 170 mg/mL solution, 25 µL mixed solution of berberine and metabolites (with the exception of dihydroberberine) at different levels, 25 µL of dihydroberberine solution, stabilized with 17 mg/mL ascorbic acid, at different levels and 25 µL of an internal standard solution containing 0.625 μg/mL of berberine-d6 and 2.5 μg/mL tetrahydropalmatine. The calibration curve was in the 62.5–5,000 ng/g range, and included 62.5, 125, 250, 500, 1,000, 2,500, and 5,000 ng/g levels. […]

T84 cells = test: Berberine metabolism in intestinal cell cultures, T84; type: in vitro ADME, human
Method: as §1, §2

[3] = Dihydroberberine stability in solution over 24 hours; type: physicochemical; settings: within 24 h; 10 ng/mL in Milli-Q water, 10°C, without vitamin C
Method: A working solution of dihydroberberine at 10 ng/mL was prepared in Milli-Q water and supplemented or not with 17 mg/mL L-ascorbic acid (vitamin C) solution and injected during 24 hours of storage time in the autosampler at 10°C.

COc1ccc2cc3n(c(=O)c2c1OC)CCc1cc2c(cc1-3)OCO2 [Oxyberberine, oxyberberine]
Detection in cell culture (Caco-2 cells; Caco-2, 0.1 μg/mL berberine, 48 h): not detected | Detection in plasma [1]: not detected | Ratio caecum / ileum (concentration) ([2]; 0.1 g berberine/kg feed): 1.94 | Ratio caecum / ileum (concentration) ([2]; 0.5 g berberine/kg feed): 1.48 | Ratio caecum / ileum (concentration) ([2]; 1 g berberine/kg feed): 0.95 | Detection in cell culture (T84 cells; T84, 0.1 μg/mL berberine, 48 h): not detected

COc1ccc2c(c1OC)CN1CCc3cc4c(cc3C1=C2)OCO4 [Dihydroberberine, dihydroberberine]
Oxidation of dihydroberberine back to berberine [3]: up to 66% | Detection in plasma [1]: effectively detected | Ratio caecum / ileum (concentration) ([2]; 0.1 g berberine/kg feed): 0.75 | Ratio caecum / ileum (concentration) ([2]; 0.5 g berberine/kg feed): 0.27 | Ratio caecum / ileum (concentration) ([2]; 1 g berberine/kg feed): 0.44

COc1cc2c(cc1OC)-c1cc3ccc(OC)c(OC)c3c[n+]1CC2 [Palmatine, palmatine chloride]
Log2(fold change) of metabolite response, cell culture over berberine control medium at 48 h (Caco-2 cells; human, Caco-2, 48 h, 0.1 µg/mL): -0.18 | Log2(fold change) of metabolite response, cell culture over berberine control medium at 48 h (T84 cells; human, 0.1 µg/mL): -0.72
